Measurements from ChEMBL document CHEMBL1649456 (Antimicrob Agents Chemother, 2009).
In brackets after ≈: the same amount, converted by molar mass.

How the values were obtained:
[1] = system: Coxiella burnetii; assay: Antimicrobial activity against compound-susceptible Coxiella burnetii isolate CP7 obtained from patient with acute Q fever infected in african green monkey Vero cells after 24 hrs by shell vial assay; assay type: functional; conditions: isolate CP7, 24 h
[2] = system: Coxiella burnetii; assay: Antimicrobial activity against compound-susceptible Coxiella burnetii Q212 obtained from patient with acute Q fever infected in african green monkey Vero cells after 24 hrs by shell vial assay; assay type: functional; conditions: Q212, 24 h
[3] = system: Coxiella burnetii; assay: Antimicrobial activity against compound-susceptible Coxiella burnetii isolate CP3 obtained from patient with acute Q fever infected in african green monkey Vero cells after 24 hrs by shell vial assay; assay type: functional; conditions: isolate CP3, 24 h
[4] = system: Coxiella burnetii; assay: Antimicrobial activity against compound-susceptible Coxiella burnetii Nine-Mile obtained from patient with acute Q fever infected in african green monkey Vero cells after 24 hrs by shell vial assay; assay type: functional
[5] = system: Coxiella burnetii; assay: Antimicrobial activity against compound-susceptible Coxiella burnetii isolate CP6 obtained from patient with acute Q fever infected in african green monkey Vero cells after 24 hrs by shell vial assay; assay type: functional; conditions: isolate CP6, 24 h
[6] = system: Coxiella burnetii; assay: Antimicrobial activity against compound-intermediate susceptible Coxiella burnetii isolate CP1 obtained from patient with acute Q fever infected in african green monkey Vero cells after 24 hrs by shell vial assay; assay type: functional; conditions: isolate CP1, 24 h
[7] = system: Coxiella burnetii; assay: Antimicrobial activity against compound-susceptible Coxiella burnetii isolate CP1 obtained from patient with acute Q fever infected in african green monkey Vero cells after 24 hrs by shell vial assay; assay type: functional; conditions: isolate CP1, 24 h
[8] = system: Coxiella burnetii; assay: Antimicrobial activity against compound-susceptible Coxiella burnetii isolate CP4 obtained from patient with acute Q fever infected in african green monkey Vero cells after 24 hrs by shell vial assay; assay type: functional; conditions: isolate CP4, 24 h
[9] = system: Coxiella burnetii; assay: Antimicrobial activity against compound-susceptible Coxiella burnetii isolate CP5 obtained from patient with acute Q fever infected in african green monkey Vero cells after 24 hrs by shell vial assay; assay type: functional; conditions: isolate CP5, 24 h
[10] = system: Coxiella burnetii; assay: Antimicrobial activity against compound-intermediate susceptible Coxiella burnetii Q212 obtained from patient with acute Q fever infected in african green monkey Vero cells after 24 hrs by shell vial assay; assay type: functional; conditions: Q212, 24 h
[11] = system: Coxiella burnetii; assay: Antimicrobial activity against compound-susceptible Coxiella burnetii isolate CP8 obtained from patient with acute Q fever infected in african green monkey Vero cells after 24 hrs by shell vial assay; assay type: functional; conditions: isolate CP8, 24 h
[12] = system: Coxiella burnetii; assay: Antimicrobial activity against compound-intermediate susceptible Coxiella burnetii isolate CP4 obtained from patient with acute Q fever infected in african green monkey Vero cells after 24 hrs by shell vial assay; assay type: functional; conditions: isolate CP4, 24 h
[13] = system: Coxiella burnetii; assay: Antimicrobial activity against compound-susceptible Coxiella burnetii isolate CP2 obtained from patient with acute Q fever infected in african green monkey Vero cells after 24 hrs by shell vial assay; assay type: functional; conditions: isolate CP2, 24 h
[14] = system: Vero; assay: Cytotoxicity against african green monkey Vero cells at 4 ug/ml; assay type: cell-based; conditions: chlorocebus sabaeus

| SMILES | MIC [1] | MIC [2] | MIC [3] | MIC [4] | MIC [5] | MIC [6] | MIC [7] | MIC [8] | MIC [9] | MIC [10] | MIC [11] | MIC [12] | MIC [13] | Activity [14] |
| --- | --- | --- | --- | --- | --- | --- | --- | --- | --- | --- | --- | --- | --- | --- |
| C[C@H]1c2cccc(O)c2C(=O)C2=C(O)[C@]3(O)C(=O)C(C(N)=O)=C(O)[C@@H](N(C)C)[C@@H]3[C@@H](O)[C@@H]21.O [DOXYCYCLINE] | 1 mg/L | 2 mg/L | 1 mg/L | 1 mg/L | 1 mg/L | 1 mg/L | 2 mg/L | 2 mg/L | 1 mg/L | 1 mg/L | 1 mg/L | 1 mg/L | 1 mg/L |  |
| CC1COc2c(N3CCN(C)CC3)c(F)cc3c(=O)c(C(=O)O)cn1c23 (centres undefined) [OFLOXACIN] | 1 mg/L (≈ 2.77 µM) | 2 mg/L (≈ 5.53 µM) | 1 mg/L (≈ 2.77 µM) | 1 mg/L (≈ 2.77 µM) | 1 mg/L (≈ 2.77 µM) | 1 mg/L (≈ 2.77 µM) | 2 mg/L (≈ 5.53 µM) | 1 mg/L (≈ 2.77 µM) | 1 mg/L (≈ 2.77 µM) | 1 mg/L (≈ 2.77 µM) | 1 mg/L (≈ 2.77 µM) |  | 1 mg/L (≈ 2.77 µM) |  |
| CC[C@H]1OC(=O)[C@H](C)[C@@H](O[C@H]2C[C@@](C)(OC)[C@@H](O)[C@H](C)O2)[C@H](C)[C@@H](O[C@@H]2O[C@H](C)C[C@H](N(C)C)[C@H]2O)[C@](C)(OC)C[C@@H](C)C(=O)[C@H](C)[C@@H](O)[C@]1(C)O [CLARITHROMYCIN] | 2 mg/L (≈ 2.67 µM) | 4 mg/L (≈ 5.35 µM) | 2 mg/L (≈ 2.67 µM) | 2 mg/L (≈ 2.67 µM) | 2 mg/L (≈ 2.67 µM) | 2 mg/L (≈ 2.67 µM) | 4 mg/L (≈ 5.35 µM) | 2 mg/L (≈ 2.67 µM) | 2 mg/L (≈ 2.67 µM) | 2 mg/L (≈ 2.67 µM) | 2 mg/L (≈ 2.67 µM) |  | 2 mg/L (≈ 2.67 µM) |  |
| O=C(O)c1cn(C2CC2)c2cc(N3CCNCC3)c(F)cc2c1=O [CIPROFLOXACIN] | 4 mg/L (≈ 12.1 µM) |  | 4 mg/L (≈ 12.1 µM) | 4 mg/L (≈ 12.1 µM) | 4 mg/L (≈ 12.1 µM) | 4 mg/L (≈ 12.1 µM) |  | 4 mg/L (≈ 12.1 µM) | 4 mg/L (≈ 12.1 µM) | 4 mg/L (≈ 12.1 µM) | 4 mg/L (≈ 12.1 µM) |  | 4 mg/L (≈ 12.1 µM) |  |
| CN(C)c1cc(NC(=O)CNC(C)(C)C)c(O)c2c1C[C@H]1C[C@H]3[C@H](N(C)C)C(O)=C(C(N)=O)C(=O)[C@@]3(O)C(O)=C1C2=O [TIGECYCLINE] | 0.25 mg/L (≈ 0.427 µM) | 0.5 mg/L (≈ 0.854 µM) | 0.25 mg/L (≈ 0.427 µM) | 0.25 mg/L (≈ 0.427 µM) | 0.25 mg/L (≈ 0.427 µM) | 0.25 mg/L (≈ 0.427 µM) | 0.5 mg/L (≈ 0.854 µM) | 0.25 mg/L (≈ 0.427 µM) | 0.25 mg/L (≈ 0.427 µM) | 0.25 mg/L (≈ 0.427 µM) | 0.25 mg/L (≈ 0.427 µM) |  | 0.25 mg/L (≈ 0.427 µM) | Non-toxic |
| CC(=O)NC[C@H]1CN(c2ccc(N3CCOCC3)c(F)c2)C(=O)O1 [LINEZOLID] | 2 mg/L (≈ 5.93 µM) | 4 mg/L (≈ 11.9 µM) | 2 mg/L (≈ 5.93 µM) | 2 mg/L (≈ 5.93 µM) | 2 mg/L (≈ 5.93 µM) | 2 mg/L (≈ 5.93 µM) | 4 mg/L (≈ 11.9 µM) | 2 mg/L (≈ 5.93 µM) | 2 mg/L (≈ 5.93 µM) | 2 mg/L (≈ 5.93 µM) | 2 mg/L (≈ 5.93 µM) |  | 2 mg/L (≈ 5.93 µM) |  |
| N[C@@H]1[C@H]2CN(c3nc4c(cc3F)c(=O)c(C(=O)O)cn4-c3ccc(F)cc3F)C[C@@H]12 [TROVAFLOXACIN] | 1 mg/L (≈ 2.4 µM) | 2 mg/L (≈ 4.8 µM) | 1 mg/L (≈ 2.4 µM) | 1 mg/L (≈ 2.4 µM) | 1 mg/L (≈ 2.4 µM) | 1 mg/L (≈ 2.4 µM) | 2 mg/L (≈ 4.8 µM) | 1 mg/L (≈ 2.4 µM) | 1 mg/L (≈ 2.4 µM) | 1 mg/L (≈ 2.4 µM) | 1 mg/L (≈ 2.4 µM) |  | 1 mg/L (≈ 2.4 µM) |  |
